Earlier results as cited in patent US20260285919A1, “RECOMBINANT PEPTIDES AND COMPOSITIONS THEREOF FOR PAIN MANAGEMENT” (UNIVERSITY OF ROCHESTER, priority 2023, published 2026).

Tests used:
mice = conditions: for pain responses in injected paws: injected into the paws of mice
human ASIC1b = human ASIC1b protein, as opposed to rodent ASIC1b

Row | Substance | pain responses in injected paws (mice) | effect on the activity of human ASIC1b (human ASIC1b) | analgesic effect in mice where ASIC1a is genetically deleted (mice; ASIC1a genetically deleted mice, ASIC1b present)
1 | PcTx1 (EDCIPKWKGCVNRHGDCCEGLECWKRRRSFEVCVPKTPKT; UniProt P60514 1-40, looked up) | this effect is not seen |  | 
2 | mambalgin | much less sensitive | increases the activity of human ASIC1b | still works
